Source: ChEMBL document CHEMBL5724914, “Linking interpersonal differences in gut microbiota composition and drug biotransformation activity” (2024)

Key:
[1] = (§1) The drug is tested on Z-016 corresponding to mouse gut metagenome with ENA study accession number: PRJEB37062 and ENA sample accession number: ERS12561815 for biotransformation under anaerobic condition. The drug concentrations were measured over 9 timepoints collected between 0 and 24 hours of incubation by liquid-chromatography-coupled mass spectrometry (LC–MS); settings: 2 µM
[2] = human gut metagenome, 24 h, 2 µM
[3] = as §1, with “Z-011” for “Z-016”, “ERS12561811” for “ERS12561815”; settings: 2 µM
[4] = human gut metagenome, 24 h, 2 µM; remark: listed apart in the source
[5] = human gut metagenome, 24 h, 2 µM; remark: listed apart in the source
[6] = human gut metagenome, 24 h, 2 µM; remark: listed apart in the source
[7] = as §1, with “WLS-086” for “Z-016”, “human” for “mouse”, “ERS12561752” for “ERS12561815”; settings: 2 µM
[8] = as §1, with “Z-026” for “Z-016”, “to” for “to mouse gut”, “ERS12561825” for “ERS12561815”; settings: 2 µM
[9] = as §1, with “WLS-082” for “Z-016”, “human” for “mouse”, “ERS12561751” for “ERS12561815”; settings: 2 µM
[10] = as §1, with “Z-017” for “Z-016”, “ERS12561816” for “ERS12561815”; settings: 2 µM
[11] = human gut metagenome, 24 h, 2 µM; remark: listed apart in the source
[12] = human gut metagenome, 24 h, 2 µM; remark: listed apart in the source
[13] = human gut metagenome, 24 h, 2 µM; remark: listed apart in the source
[14] = human gut metagenome, 24 h, 2 µM; remark: listed apart in the source
[15] = human gut metagenome, 24 h, 2 µM; remark: listed apart in the source
[16] = as §1, with “Z-028” for “Z-016”, “ERS12561827” for “ERS12561815”; settings: 2 µM
[17] = as §1, with “Z-023” for “Z-016”, “to” for “to mouse gut”, “ERS12561822” for “ERS12561815”; settings: 2 µM
[18] = human gut metagenome, 24 h, 2 µM; remark: listed apart in the source
[19] = human gut metagenome, 24 h, 2 µM; remark: listed apart in the source
[20] = human gut metagenome, 24 h, 2 µM; remark: listed apart in the source
Also: call rule not given here.

Bacterial Biotransformation [1] | Bacterial Biotransformation [2] | Bacterial Biotransformation [3] | Bacterial Biotransformation [4] | Bacterial Biotransformation [5] | Bacterial Biotransformation [6] | Bacterial Biotransformation [7] | Bacterial Biotransformation [8] | Bacterial Biotransformation [9] | Bacterial Biotransformation [10] | Bacterial Biotransformation [11] | Bacterial Biotransformation [12] | Bacterial Biotransformation [13] | Bacterial Biotransformation [14] | Bacterial Biotransformation [15] | Bacterial Biotransformation [16] | Bacterial Biotransformation [17] | Bacterial Biotransformation [18] | Bacterial Biotransformation [19] | Bacterial Biotransformation [20] | Structure (SMILES)
Compound NOT metabolized | Compound NOT metabolized | Compound NOT metabolized | Compound NOT metabolized | Compound NOT metabolized | Compound NOT metabolized | Compound metabolized | Compound NOT metabolized | Compound NOT metabolized | Compound NOT metabolized | Compound NOT metabolized | Compound NOT metabolized | Compound NOT metabolized | Compound metabolized | Compound NOT metabolized | Compound NOT metabolized | Compound NOT metabolized | Compound NOT metabolized | Compound NOT metabolized | Compound metabolized | CCN1CCCC1CNC(=O)c1cc(S(=O)(=O)CC)c(N)cc1OC (stereo not given) [AMISULPRIDE]
Compound metabolized | Compound metabolized | Compound metabolized | Compound NOT metabolized | Compound metabolized | Compound metabolized | Compound metabolized | Compound NOT metabolized | Compound metabolized | Compound metabolized | Compound metabolized | Compound metabolized | Compound metabolized | Compound metabolized | Compound metabolized | Compound metabolized | Compound NOT metabolized | Compound metabolized | Compound metabolized | Compound metabolized | CC(=O)OCC(=O)[C@@]1(OC(C)=O)[C@@H](C)C[C@H]2[C@@H]3C[C@H](F)C4=CC(=O)C=C[C@]4(C)[C@@]3(F)[C@@H](O)C[C@@]21C [DIFLORASONE DIACETATE]
Compound metabolized | – | Compound metabolized | Compound NOT metabolized | Compound metabolized | Compound metabolized | Compound metabolized | Compound metabolized | Compound metabolized | Compound metabolized | Compound metabolized | Compound metabolized | Compound metabolized | Compound metabolized | Compound metabolized | Compound metabolized | Compound metabolized | Compound metabolized | Compound metabolized | Compound metabolized | C#C[C@]1(OC(C)=O)CC[C@H]2[C@@H]3CCC4=C[C@@H](OC(C)=O)CC[C@@H]4[C@H]3CC[C@@]21C [ETHYNODIOL DIACETATE]
Compound metabolized | Compound NOT metabolized | Compound NOT metabolized | Compound NOT metabolized | Compound metabolized | Compound metabolized | Compound metabolized | Compound metabolized | Compound metabolized | Compound metabolized | Compound metabolized | Compound metabolized | Compound metabolized | Compound metabolized | – | Compound metabolized | Compound metabolized | – | Compound metabolized | Compound metabolized | C[C@]12C=CC(=O)C=C1CC[C@@H]1[C@@H]2C(=O)C[C@@]2(C)[C@H]1CC[C@]2(O)C(=O)CO [PREDNISONE]

More lines, now with the values behind:

Structure (SMILES) | Bacterial Biotransformation [1] | Bacterial Biotransformation [2] | Bacterial Biotransformation [3] | Bacterial Biotransformation [4] | Bacterial Biotransformation [5] | Bacterial Biotransformation [6] | Bacterial Biotransformation [7] | Bacterial Biotransformation [8] | Bacterial Biotransformation [9] | Bacterial Biotransformation [10] | Bacterial Biotransformation [11] | Bacterial Biotransformation [12] | Bacterial Biotransformation [13] | Bacterial Biotransformation [14] | Bacterial Biotransformation [15] | Bacterial Biotransformation [16] | Bacterial Biotransformation [17] | Bacterial Biotransformation [18] | Bacterial Biotransformation [19] | Bacterial Biotransformation [20]
CN1CCC(OC(c2ccccc2)c2ccccc2)CC1 | Compound NOT metabolized | Compound metabolized | Compound NOT metabolized | Compound NOT metabolized | Compound metabolized | Compound metabolized | Compound metabolized | Compound NOT metabolized | Compound NOT metabolized | Compound NOT metabolized | Compound NOT metabolized | Compound NOT metabolized | Compound metabolized | Compound NOT metabolized | Compound metabolized | Compound NOT metabolized | Compound metabolized | Compound NOT metabolized | Compound metabolized | Compound metabolized
CC1=C(CC(=O)O)c2cc(F)ccc2/C1=C\c1ccc([S+](C)[O-])cc1 (stereo not given) | Compound NOT metabolized | Compound metabolized | Compound NOT metabolized | – | Compound metabolized | Compound metabolized | Compound metabolized | Compound metabolized | Compound metabolized | Compound NOT metabolized | Compound metabolized | Compound metabolized | Compound metabolized | Compound metabolized | Compound metabolized | Compound NOT metabolized | Compound metabolized | – | Compound metabolized | Compound metabolized
CCOC(=O)[C@H](CCc1ccccc1)N[C@@H](C)C(=O)N1Cc2ccccc2C[C@H]1C(=O)O | Compound NOT metabolized | Compound NOT metabolized | Compound NOT metabolized | Compound NOT metabolized | Compound metabolized | Compound metabolized | Compound metabolized | Compound NOT metabolized | Compound metabolized | Compound NOT metabolized | Compound metabolized | Compound NOT metabolized | Compound metabolized | Compound metabolized | Compound metabolized | Compound NOT metabolized | Compound metabolized | Compound metabolized | Compound metabolized | Compound metabolized
CC(C)NCC(O)COc1ccc(CC(N)=O)cc1 (stereo not given) [ATENOLOL] | Compound NOT metabolized | Compound NOT metabolized | Compound NOT metabolized | Compound NOT metabolized | Compound metabolized | Compound NOT metabolized | Compound metabolized | Compound NOT metabolized | Compound NOT metabolized | Compound NOT metabolized | Compound metabolized | Compound NOT metabolized | Compound NOT metabolized | Compound metabolized | Compound NOT metabolized | Compound NOT metabolized | Compound NOT metabolized | Compound NOT metabolized | Compound NOT metabolized | Compound NOT metabolized
CN(C)CCC=C1c2ccccc2COc2ccccc21 [DOXEPIN] | Compound NOT metabolized | Compound metabolized | Compound NOT metabolized | Compound NOT metabolized | Compound metabolized | Compound NOT metabolized | Compound NOT metabolized | Compound NOT metabolized | Compound NOT metabolized | Compound NOT metabolized | Compound NOT metabolized | Compound NOT metabolized | Compound metabolized | Compound metabolized | Compound NOT metabolized | Compound NOT metabolized | Compound metabolized | Compound NOT metabolized | Compound metabolized | Compound metabolized
